Reference: US10850134B2, “Method and kit for home controlled ovarian stimulation for in vitro fertilization” (priority 2019, dated 2020)
Where “and” joins values, the source holds several entries; their conditions need not be identical. Equal values may be shown once.

Experiments:
[1] = test system: Luteinizing hormone (LH) blood level; experiment: LH blood level in patients on GnRH antagonist protocol with ganirelix acetate injections (Example 1); format: in vivo, female patients
Experimental: Five female patients were treated with a GnRH antagonist protocol requiring injections of medications.
One patient, patient no. 1, was injected with 150 Units of FSH on days 3 to 12; half a syringe of 150 mcg/0.5 mL of ganirelix acetate on days 11 and 12; and 50 mg of clomiphene citrate on days 3 to 12; and 2.5 mg of letrozole on days 3 to 7. Luteinizing hormone (LH) blood level was 4.3 mIU/mL on day 10 and dropped to 2 mIU/mL on day 12.
A second patient, patient no. 2, was injected with 75 Units of FSH on days 4 to 12 and 150 Units on day 13; half a syringe of 150 mcg/0.5 mL of ganirelix acetate on days 11 to 13; 50 mg of clomiphene citrate on days 10 to 12, and 2.5 mg of letrozole on days 3 to 7. Luteinizing hormone (LH) blood level was 12.0 mIU/mL on day 11 and dropped to 6.3 mIU/mL on day 13.
Three patients, numbered 3 to 5, were injected with 75, 150 and 225 Units of FSH, respectively, on days 4 to 12 and one third a syringe of 150 mcg/0.5 mL of ganirelix acetate on days 11 to 13. Patient no. 3 received 50 mg of clomiphene citrate on days 4 to 12, and 2.5 mg of letrozole on days 4 to 8. Patient no. 4 received 100 mg of clomiphene citrate and 2.5 mg of letrozole on days 4 to 8, and 50 mg of clomiphene citrate on days 9 to 11. Patient no. 5 received no clomiphene citrate or letrozole. Luteinizing hormone (LH) blood level was 12.0, 18.0 and 14.6 mIU/mL, respectively, on day 10 and dropped to 4.9, 16.0 and 14.1 mIU/mL, respectively, on day 12.
(§1) Table 2 below provides a comparison of the efficacy of conventional Ganirelex/Cetrotide injectables treatment for IVF in the five representative patients from Example 1 with the home controlled ovarian hyperstimulation method described herein in the five representative patients from Example 2.

[2] = test system: Luteinizing hormone (LH) blood level; experiment: LH blood level in patients on home controlled ovarian hyperstimulation method with vaginal elagolix (Example 2); format: in vivo, female patients; conditions: for Luteinizing hormone (LH) blood level: 50 mg elagolix vaginal suppository days 9 and 11
Experimental: Five female patients were treated with the controlled ovarian hyperstimulation method described herein using the elagolix pill (vaginal route) instead of the conventional Ganirelex/Cetrotide injectables. On day 3 of the patient's menstrual cycle, the patient orally took 100 mg (two 50 mg oral tablets) of clomiphene citrate and 5 mg (two 2.5 mg oral tablets) of letrozole. The patient then took the same oral dosages of clomiphene citrate and letrozole daily on each of days 4-7 of the patient's menstrual cycle. On day 8 of the patient's menstrual cycle, the patient orally took only 100 mg (two 50 mg oral tablets) of clomiphene citrate, and stopped the letrozole. On day 9 of the menstrual cycle, the patient orally took 100 mg (two 50 mg oral tablets) of clomiphene citrate and inserted vaginally a 50 mg tablet of elagolix as a vaginal suppository. On day 10 of the menstrual cycle, the patient orally took only 100 mg (two 50 mg oral tablets) of clomiphene citrate. On day 11 of the menstrual cycle, the patient orally took 100 mg (two 50 mg oral tablets) of clomiphene citrate and inserted vaginally a 50 mg tablet of elagolix as a vaginal suppository. Also, on day 11, the patient took a home ovulation test in the morning (9:00 am) and in the evening (9:00 pm). For the patients whose ovulation tests were not positive, then on days 12 and 13, the patient took 2 doses of leuprorelin as a nasal spray (1:40 dilution in saline) as follows. On day 12, after taking a home ovulation test at 9:00 am, 2 puffs (sprays) of the nasal spray were self-administered by the patient per nostril. After 12 hours of waiting, at 9:00 pm the patient took a home urine ovulation test and then self-administered 2 more puffs (sprays) of the nasal spray per nostril. On day 13, the patient repeated the procedure of day 12. Luteinizing hormone (LH) blood level was 7.0 mIU/mL on day 11 and dropped to 1.0 mIU/mL on day 13.
as §1

[3] = Example 1, conventional injectables, individual patients 1-5, blood
[4] = Example 2, vaginal elagolix suppository 50 mg days 9 and 11, individual patients 1-5, blood

ganirelix acetate
% Drop in blood LH hormone level ([1]; Example 1, conventional injectables, individual patients 1-5): 53.5% and 47.5% and 59.2% and 11.1% and 3.4%
LH blood hormone level (mIU/mL) AFTER medication intake [1, 3]: 2.0 mIU/mL and 6.3 mIU/mL and 4.9 mIU/mL and 16.0 mIU/mL and 14.1 mIU/mL
LH blood hormone level (mIU/mL) BEFORE medication intake [1, 3]: 4.3 mIU/mL and 12.0 mIU/mL (2×) and 18.0 mIU/mL and 14.6 mIU/mL
Luteinizing hormone (LH) blood level ([1]; patient no. 1, day 10, half a syringe ganirelix acetate days 11 and 12, 150 Units FSH): 4.3 mIU/mL
drop in LH blood hormone levels ([1]; patient no. 1, day 10 to day 12): 53.5%
Luteinizing hormone (LH) blood level ([1]; patient no. 1, day 12, half a syringe ganirelix acetate days 11 and 12, 150 Units FSH): 2 mIU/mL
Luteinizing hormone (LH) blood level ([1]; patient no. 2, day 11, half a syringe ganirelix acetate days 11 to 13, 75 Units FSH): 12.0 mIU/mL
drop in LH blood hormone levels ([1]; patient no. 2, day 11 to day 13): 47.5%
Luteinizing hormone (LH) blood level ([1]; patient no. 2, day 13, half a syringe ganirelix acetate days 11 to 13, 75 Units FSH): 6.3 mIU/mL
Luteinizing hormone (LH) blood level ([1]; patient no. 3, day 10, one third a syringe ganirelix acetate days 11 to 13, 75 Units FSH): 12.0 mIU/mL
drop in LH blood hormone levels ([1]; patient no. 3, day 10 to day 12): 59.25
Luteinizing hormone (LH) blood level ([1]; patient no. 3, day 12, one third a syringe ganirelix acetate days 11 to 13, 75 Units FSH): 4.9 mIU/mL
Luteinizing hormone (LH) blood level ([1]; patient no. 4, day 10, one third a syringe ganirelix acetate days 11 to 13, 150 Units FSH): 18.0 mIU/mL
drop in LH blood hormone levels ([1]; patient no. 4, day 10 to day 12): 11.1%
Luteinizing hormone (LH) blood level ([1]; patient no. 4, day 12, one third a syringe ganirelix acetate days 11 to 13, 150 Units FSH): 16.0 mIU/mL
Luteinizing hormone (LH) blood level ([1]; patient no. 5, day 10, one third a syringe ganirelix acetate days 11 to 13, 225 Units FSH, no clomiphene citrate or letrozole): 14.6 mIU/mL
drop in LH blood hormone levels ([1]; patient no. 5, day 10 to day 12): 3.4%
Luteinizing hormone (LH) blood level ([1]; patient no. 5, day 12, one third a syringe ganirelix acetate days 11 to 13, 225 Units FSH, no clomiphene citrate or letrozole): 14.1 mIU/mL

COc1cccc(-c2c(C)n(Cc3c(F)cccc3C(F)(F)F)c(=O)n(C[C@H](NCCCC(=O)O)c3ccccc3)c2=O)c1F [Vaginal elagolix suppository, elagolix]
% Drop in blood LH hormone level ([2]; Example 2, vaginal elagolix suppository 50 mg days 9 and 11, individual patients 1-5): 85.7% and 65.9% and 68.6% and 79.3% and 88.6%
LH blood hormone level (mIU/mL) AFTER medication intake [2, 4]: 1.0 mIU/mL and 5.7 mIU/mL and 3.2 mIU/mL and 1.7 mIU/mL and 0.8 mIU/mL
LH blood hormone level (mIU/mL) BEFORE medication intake [2, 4]: 7.0 mIU/mL and 16.7 mIU/mL and 10.2 mIU/mL and 8.2 mIU/mL and 7 mIU/mL
Luteinizing hormone (LH) blood level ([2]; day 11): 7.0 mIU/mL
drop in LH blood hormone levels ([2]; day 11 to day 13): 85.7%
Luteinizing hormone (LH) blood level ([2]; day 13): 1.0 mIU/mL
